This note sets out measurements from patent US12018021B2 (UCB Biopharma SRL, priority 2018, dated 2024).

For the assay, the target named is IgE-Tb / sFcεRIα-Y131A-AF488 (Homo sapiens, UniProt P01854, N146Q/N252Q). Briefly: IgE-Tb / sFcεRIα-Y131A-AF488 FRET assay (protocol for examples 234 to 501). Type of assay: binding. Conditions: examples 234 to 501: compound with IgE-Tb 30 minutes before sFcεRIα-Y131A-AF488, incubated 18 hours at room temperature; read-out: Y131A FRET IC50 range. The essentials:
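Read-out is the 520/490 nm emission ratio (337 nm excitation) after 18 h at room temperature, background subtracted, fitted four-parameter for IC50. Final reagents: 5 nM IgE-Tb, preincubated 30 min with compound (top typically 10 μM, 2% DMSO, 3-fold 10-point), plus 25 nM sFcεRIα-Y131A-AF488.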

Chain of IgE-Tb / sFcεRIα-Y131A-AF488 (P01854 whole entry N146Q/N252Q): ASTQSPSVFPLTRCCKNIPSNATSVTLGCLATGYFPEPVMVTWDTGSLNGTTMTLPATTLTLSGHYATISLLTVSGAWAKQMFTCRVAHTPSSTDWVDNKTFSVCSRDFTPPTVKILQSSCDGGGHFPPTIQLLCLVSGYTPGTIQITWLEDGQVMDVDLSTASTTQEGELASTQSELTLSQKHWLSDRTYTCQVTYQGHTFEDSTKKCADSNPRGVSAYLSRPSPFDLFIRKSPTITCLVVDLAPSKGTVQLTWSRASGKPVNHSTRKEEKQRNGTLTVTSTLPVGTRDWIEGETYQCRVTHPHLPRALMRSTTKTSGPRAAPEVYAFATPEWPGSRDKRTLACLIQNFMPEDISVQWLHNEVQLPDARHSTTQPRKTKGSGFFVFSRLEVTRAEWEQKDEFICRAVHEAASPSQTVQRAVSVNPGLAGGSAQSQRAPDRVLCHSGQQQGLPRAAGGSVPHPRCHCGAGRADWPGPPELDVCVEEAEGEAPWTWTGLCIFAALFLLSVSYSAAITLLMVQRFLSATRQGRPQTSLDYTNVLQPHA

For the compound `CCNC(=O)N1CC[C@H](Nc2nncn2[C@H]2CCc3sc(NC(=O)C4CC4)c(C(=O)NCC4CC4)c3C2)C1` [Example 288, (3S)-3-[[4-[(5S)-2-(cyclopropanecarbonylamino)-3-(cyclopropylmethylcarbamoyl)-4,5,6,7-tetrahydrobenzothiophen-5-yl]-1,2,4-triazol-3-yl]amino]-N-ethyl-pyrrolidine-1-carboxamide], the 50% inhibitory concentration (IC50) was less than 1000 nM.

As for `Cn1nc(OC(F)(F)F)cc1Nc1nncn1[C@H]1CCc2sc(NC(=O)[C@H]3C[C@H]3F)c(C(=O)NCC3CC3)c2C1` [Example 292, (5S)—N-(cyclopropylmethyl)-2-[[(1R,2R)-2-fluorocyclopropanecarbonyl]amino]-5-[3-[[2-methyl-5-(trifluoromethoxy)pyrazol-3-yl]amino]-1,2,4-triazol-4-yl]-4,5,6,7-tetrahydrobenzothiophene-3-carboxamide], the IC50 is less than 1000 nM.

As for `Cn1nc(OC(F)(F)Cl)cc1Nc1nncn1[C@H]1CCc2sc(NC(=O)[C@H]3C[C@H]3F)c(C(=O)NCC3CC3)c2C1` [Example 293, (5S)-5-[3-[[5-[chloro(difluoro)methoxy]-2-methyl-pyrazol-3-yl]amino]-1,2,4-triazol-4-yl]-N-(cyclopropylmethyl)-2-[[(1R,2R)-2-fluorocyclopropanecarbonyl]amino]-4,5,6,7-tetrahydrobenzothiophene-3-carboxamide], the half-maximal inhibitory concentration (IC50) is less than 1000 nM.

As for `Cn1nc(OC(F)(F)F)cc1Nc1nncn1[C@H]1CCc2sc(NC(=O)C3CC3)c(C(=O)NCC3CC3)c2C1` [Example 294, (5S)-2-(cyclopropanecarbonylamino)-N-(cyclopropylmethyl)-5-[3-[[2-methyl-5-(trifluoromethoxy)pyrazol-3-yl]amino]-1,2,4-triazol-4-yl]-4,5,6,7-tetrahydrobenzothiophene-3-carboxamide], the IC50 is less than 1000 nM.

Take `Cn1nc(OC(F)(F)Cl)cc1Nc1nncn1[C@H]1CCc2sc(NC(=O)C3CC3)c(C(=O)NCC3CC3)c2C1` [Example 295, (5S)-5-[3-[[5-[chloro(difluoro)methoxy]-2-methyl-pyrazol-3-yl]amino]-1,2,4-triazol-4-yl]-2-(cyclopropanecarbonylamino)-N-(cyclopropylmethyl)-4,5,6,7-tetrahydrobenzothiophene-3-carboxamide]: the 50% inhibitory concentration (IC50) was less than 1000 nM.

Take `Cc1nnc(-c2cc(Nc3nncn3[C@H]3CCc4sc(NC(=O)C5CC5)c(C(=O)NCC5CC5)c4C3)n(C)n2)o1` [Example 296, (5S)-2-cyclopropaneamido-N-(cyclopropylmethyl)-5-(3-{[1-methyl-3-(5-methyl-1,3,4-oxadiazol-2-yl)-1H-pyrazol-5-yl]amino}-4H-1,2,4-triazol-4-yl)-4,5,6,7-tetrahydro-1-benzothiophene-3-carboxamide]: the half-maximal inhibitory concentration (IC50) is less than 1000 nM.

As for `COc1cnc(Nc2nncn2[C@H]2CCc3sc(NC(=O)C4CC4)c(C(=O)NCC4CC4)c3C2)c(C)n1` [Example 297, (5S)-2-(cyclopropanecarbonylamino)-N-(cyclopropylmethyl)-5-[3-[(5-methoxy-3-methyl-pyrazin-2-yl)amino]-1,2,4-triazol-4-yl]-4,5,6,7-tetrahydrobenzothiophene-3-carboxamide], the IC50 is less than 1000 nM.

Take `Cc1ccc2nc(N[C@H]3CCc4sc(NC(=O)C5CC5)c(C(=O)NCC5CC5)c4C3)sc2n1` [Example 298, (5S)-2-(cyclopropanecarbonylamino)-N-(cyclopropylmethyl)-5-[(5-methylthiazolo[5,4-b]pyridin-2-yl)amino]-4,5,6,7-tetrahydrobenzothiophene-3-carboxamide]: the 50% inhibitory concentration (IC50) was less than 1000 nM.

Turning to `Cc1ncc(C#N)cc1Nc1nncn1[C@H]1CCc2sc(NC(=O)C3CC3)c(C(=O)NCC3CC3)c2C1` [Example 299, (5S)-5-[3-[(5-cyano-2-methyl-3-pyridyl)amino]-1,2,4-triazo-4-yl]-2-(cyclopropanecarbonylamino)-N-(cyclopropylmethyl)-4,5,6,7-tetrahydrobenzothiophene-3-carboxamide], the IC50 is less than 1000 nM.

Turning to `Cc1nc(C#N)ccc1Nc1nncn1[C@H]1CCc2sc(NC(=O)C3CC3)c(C(=O)NCC3CC3)c2C1` [Example 300, (5S)-5-[3-[(6-cyano-2-methyl-3-pyridyl)amino]-1,2,4-triazol-4-yl]-2-(cyclopropanecarbonylamino)-N-(cyclopropylmethyl)-4,5,6,7-tetrahydrobenzothiophene-3-carboxamide], the IC50 was less than 1000 nM.

Take `Cn1ccc(Nc2nncn2[C@H]2CCc3sc(NC(=O)C4CC4)c(C(=O)NCC4CC4)c3C2)cc1=O` [Example 301, (5S)-2-(cyclopropanecarbonylamino)-N-(cyclopropylmethyl)-5-[3-[(1-methyl-2-oxo-4-pyridyl)amino]-1,2,4-triazol-4-yl]-4,5,6,7-tetrahydrobenzothiophene-3-carboxamide]: the IC50 was less than 1000 nM.

For the compound `Cc1nc(Cl)ccc1Nc1nncn1[C@H]1CCc2sc(NC(=O)C3CC3)c(C(=O)NCC3CC3)c2C1` [Example 302, (5S)-5-[3-[(6-chloro-2-methyl-3-pyridyl)amino]-1,2,4-triazol-4-yl]-2-(cyclopropanecarbonylamino)-N-(cyclopropylmethyl)-4,5,6,7-tetrahydrobenzothiophene-3-carboxamide], the half-inhibitory concentration (IC50) was less than 1000 nM.

`Cc1nc(C(F)(F)F)ccc1Nc1nncn1[C@H]1CCc2sc(NC(=O)C3CC3)c(C(=O)NCC3CC3)c2C1` [Example 303, (5S)-2-(cyclopropanecarbonylamino)-N-(cyclopropylmethyl)-5-[3-[[2-methyl-6-(trifluoromethyl)-3-pyridyl]amino]-1,2,4-triazol-4-yl]-4,5,6,7-tetrahydrobenzothiophene-3-carboxamide]: the IC50 is less than 1000 nM.

Consider `Cc1nnccc1Nc1nncn1[C@H]1CCc2sc(NC(=O)C3CC3)c(C(=O)NCC3CC3)c2C1` [Example 304, (5S)-2-(cyclopropanecarbonylamino)-N-(cyclopropylmethyl)-5-[3-[(3-methylpyridazin-4-yl)amino]-1,2,4-triazol-4-yl]-4,5,6,7-tetrahydrobenzothiophene-3-carboxamide], for which the IC50 is less than 1000 nM.

Turning to `Cn1nc(Cl)cc1Nc1nncn1[C@H]1CCc2sc(NC(=O)C3CC3)c(C(=O)NCC3CC3)c2C1` [Example 305, (5S)-5-[3-[(5-chloro-2-methyl-pyrazol-3-yl)amino]-1,2,4-triazol-4-yl]-2-(cyclopropanecarbonylamino)-N-(cyclopropylmethyl)-4,5,6,7-tetrahydrobenzothiophene-3-carboxamide], the IC50 is less than 1000 nM.

As for `C[C@@H]1C[C@@H]1C(=O)Nc1sc2c(c1C(=O)NCC1CC1)C[C@@H](n1cnnc1Nc1cc(OC(F)F)nn1C)CC2` [Example 306, (5S)—N-(cyclopropylmethyl)-5-[3-[[5-(difluoromethoxy)-2-methyl-pyrazol-3-yl]amino]-1,2,4-triazol-4-yl]-2-[[(1S,2R)-2-methylcyclopropanecarbonyl]amino]-4,5,6,7-tetrahydrobenzothiophene-3-carboxamide], the 50% inhibitory concentration (IC50) is less than 1000 nM.

For `Cc1nscc1Nc1nncn1[C@H]1CCc2sc(NC(=O)C3CC3)c(C(=O)NCC3CC3)c2C1` [Example 307, (5S)-2-(cyclopropanecarbonylamino)-N-(cyclopropylmethyl)-5-[3-[(3-methylisothiazol-4-yl)amino]-1,2,4-triazol-4-yl]-4,5,6,7-tetrahydrobenzothiophene-3-carboxamide], the IC50 was less than 1000 nM.

Regarding `Cc1nocc1Nc1nncn1[C@H]1CCc2sc(NC(=O)C3CC3)c(C(=O)NCC3CC3)c2C1` [Example 308, (5S)-2-(cyclopropanecarbonylamino)-N-(cyclopropylmethyl)-5-[3-[(3-methylisoxazol-4-yl)amino]-1,2,4-triazol-4-yl]-4,5,6,7-tetrahydrobenzothiophene-3-carboxamide], the IC50 is less than 1000 nM.

Turning to `Cn1nc(OCC2CC2)cc1Nc1nncn1[C@H]1CCc2sc(NC(=O)[C@H]3C[C@@H]3F)c(C(=O)NCC3CC3)c2C1` [Example 309, (5S)-5-[3-[[5-(cyclopropylmethoxy)-2-methyl-pyrazol-3-yl]amino]-1,2,4-triazol-4-yl]-N-(cyclopropylmethyl)-2-[[(1R,2S)-2-fluorocyclopropanecarbonyl]amino]-4,5,6,7-tetrahydrobenzothiophene-3-carboxamide], the IC50 was less than 1000 nM.

Regarding `CCOc1cc(Nc2nncn2[C@H]2CCc3sc(NC(=O)[C@H]4C[C@@H]4F)c(C(=O)NCC4CC4)c3C2)n(C)n1` [Example 310, (5S)—N-(cyclopropylmethyl)-5-[3-[(5-ethoxy-2-methyl-pyrazol-3-yl)amino]-1,2,4-triazol-4-yl]-2-[[(1R,2S)-2-fluorocyclopropanecarbonyl]amino]-4,5,6,7-tetrahydrobenzothiophene-3-carboxamide], the IC50 was less than 1000 nM.

Regarding `Cn1nc(C(F)(F)F)cc1Nc1nncn1[C@H]1CCc2sc(NC(=O)[C@H]3C[C@H]3F)c(C(=O)NCC3CC3)c2C1` [Example 312, (5S)—N-(cyclopropylmethyl)-2-[[(1R,2R)-2-fluorocyclopropanecarbonyl]amino]-5-[3-[[2-methyl-5-(trifluoromethyl)pyrazol-3-yl]amino]-1,2,4-triazol-4-yl]-4,5,6,7-tetrahydrobenzothiophene-3-carboxamide], the IC50 was less than 1000 nM.

Consider `Cn1nc(OC(F)F)cc1Nc1nncn1[C@H]1CCc2sc(NC(=O)[C@H]3C[C@@H]3F)c(C(=O)NCC3CC3)c2C1` [Example 313, (5S)—N-(cyclopropylmethyl)-5-[3-[[5-(difluoromethoxy)-2-methyl-pyrazol-3-yl]amino]-1,2,4-triazol-4-yl]-2-[[(1R,2S)-2-fluorocyclopropanecarbonyl]amino]-4,5,6,7-tetrahydrobenzothiophene-3-carboxamide], for which the IC50 is less than 1000 nM.

A word on the IC50: it is the concentration needed to halve the response being measured.
